Like-named read-outs stand apart in the source and are kept apart here.
What was measured:
[1] = Heart only and heart:liver chip PKPD model (Phoenix NLME 7.0)
Protocol: Heart, liver, media, and PDMS compartments and their corresponding parameters can be seen outlined in Fig. 4a.
A fifth compartment, FPD, was added to the Phoenix model to represent a PD profile linked to the defined PK model.
Using the experimental data collected (Fig. 3), parameters (except for Kint) were simultaneously fit across heart only and heart-liver systems. […] In the heart only case, the liver compartment was eliminated resulting in relevant parameters being equal to 0. Volumes of each compartment was defined by system parameters described above. The liver volume was initialized based on the system estimates but allowed to vary to account for any differences between assumed and actual cell numbers or sizes. […] Published Guinea pig[23], dog[24] and human, PK profiles were used as inputs into the established model in order to predict cardiac bioaccumulation over time, and therefore predict change in predicted FPD. While Guinea pig and dog temporal PKPD data is available in the literature, matching human data is not. […] The reported standard deviation values in PK profile were used to capture the associated error in predicted FPD values.

[2] = test system: hiPS-CMs; assay: Heart only MPS model, field potential duration (FPD) by MEA; format: cell-based, human; conditions: 5 µM terfenadine
Protocol: The medium recirculates between 2 reservoirs through a microfluidic network formed by the PDMS gaskets, with flow driven by a rocking platform producing a sinusoidal rocking profile with amplitude of ±1° and period of 60 seconds. The medium flows over the cell-containing areas of the liver coverslips and cardiac cantilever and MEA chips within the microfluidic channel. The system contained a total of 2 mL of medium throughout the flow channel and reservoirs. Compound dosing was applied at the reservoir closest to the liver chamber, such that the compound would first pass over and interact with the liver before being recirculated throughout the system.
hiPS-CMs (purchased from Cellular Dynamics) were thawed and seeded directly onto the surfaces at 50,000 cells per MEA and 500,000 cells per cantilever[6]. Primary human hepatocytes were purchased from the Cell Resources Core (Massachusetts General Hospital, Boston, MA, USA). Once thawed, 150,000 hepatocytes were cultured in the hepatic chamber which was coated with rat tail collagen type I (60 ug/mL) as previously described[6]. […]
FPD, spontaneous beat frequency and CV were extracted using Clampfit (Axon Instruments). The FPD was calculated by measuring the time from the initiation of the Q-wave until the apex of t-wave. […]

[3] = design: method as in PMID 18587422, PMID 16581270; conditions: human; assumed for FPD simulation; cited from earlier work
[4] = heart:liver model, 5 µM terfenadine, mean ± SD
Protocol: (§1) All drugs were separated using gradient elution methodology on a C18 phase (Agilent Zorbax Eclipse Plus, 4.6 mm, 100 mm length, 3 µm particle diameter) with binary mobile phase. Samples (50 µL) were diluted with acetonitrile and centrifuged to precipitate proteins after addition of the internal standard. The MS was set to positive ion mode and multiple reactive monitoring with nitrogen used for collision induced dissociation.

[5] = heart only model, 5 µM terfenadine
Protocol: as §1

[6] = design: method as in PMID 18587422, PMID 16581270; conditions: dog; assumed for FPD simulation; cited from earlier work
[7] = design: method as in PMID 18587422, PMID 16581270; conditions: Guinea pig; assumed for FPD simulation; cited from earlier work
[8] = fit across heart only and heart:liver systems

Compound | tvKint (delay of fexofenadine release into the system), estimate ([1]; fit to fexofenadine concentration data, units printed n/a) | increase in FPD ([2]; 12-hour timepoint) | increase in FPD (peak measurable change) ([2]; 4 hours) | percent free protein in plasma [3] | terfenadine concentration in media (peak) ([4]; 0.5 hours) | terfenadine concentration in heart chamber lysate (peak) ([4]; peak between 0.5 and 1 hours) | terfenadine concentration in liver chamber lysate (peak) ([4]; peak between 0.5 and 1 hours) | KC1 (flow medium to heart), estimate [1, 8] | KP2 (first order flow PDMS to medium), estimate [1, 8] | Kfc (metabolism of terfenadine to fexofenadine in heart compartment), estimate [1, 8] | KL2 (flow liver to medium), estimate ([1]; heart:liver system) | Kfl (metabolism of terfenadine to fexofenadine in liver compartment), estimate ([1]; heart:liver system) | terfenadine concentration in media ([5]; 12-hour timepoint) | terfenadine concentration in media (peak) ([5]; 0.5 hours, mean ± SD) | terfenadine concentration in cardiomyocyte lysates (peak) ([5]; 4 hours, mean ± SD) | percent free protein in plasma [6] | percent free protein in plasma [7]
CC(C)(C(=O)O)c1ccc(C(O)CCCN2CCC(C(O)(c3ccccc3)c3ccccc3)CC2)cc1 (centres unmarked) [fexofenadine] | 0.00062 |  |  |  |  |  |  |  |  |  |  |  |  |  |  |  | 
CC(C)(C)c1ccc(C(O)CCCN2CCC(C(O)(c3ccccc3)c3ccccc3)CC2)cc1 (centres unmarked) [terfenadine] |  | 4.8 fold | 8 fold | 3% | 0.53 µM | 1.08 µM | 12.04 µM | 0.0019 min⁻¹ | 0.00052 min⁻¹ | 0.0009 min⁻¹ | 0.04988 min⁻¹ | 0.0162 min⁻¹ | 0.099 µM | 5.88 µM | 2.65 µM | 2% | 3%

From publication PMC6610665, “On the potential of in vitro organ-chip models to define temporal pharmacokinetic-pharmacodynamic relationships” (Scientific Reports, 2019)
